Experimental data reported in ChEMBL document CHEMBL1201862, “PubChem BioAssay data set” (2004).
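Method: 48-hour compound exposure of cells in 96-well plates, five concentrations, linear interpolation of endpoints. GI50 = concentration required for 50% inhibition of growth.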 Activity calls are given as the source filed them. Rule as the data show it: active = GI50 up to about 1.1 µM and inactive = higher.

Key:
Assay in all cases: NCI-60 cell line screen, 48 h
[1] = test system: DLD-1
[2] = test system: XF498
[3] = test system: DMS-114
[4] = test system: DMS-273
[5] = test system: M19-MEL
[6] = test system: KM-20L2
[7] = test system: LXFL 529
[8] = test system: SNB-78
[9] = test system: RXF 631

Measured: GI50

O=C(CSc1ncnc2[nH]cnc12)c1ccccc1
inactive: [1] > 100 µM | [2] > 100 µM | [3] > 100 µM | [4] > 100 µM | [5] > 100 µM | [6] > 100 µM | [7] > 100 µM | [8] > 100 µM

COC(=O)Cc1cc(=O)n2c3ccccc3n(C)c2c1C#N
inactive: [1] > 100 µM | [2] > 100 µM | [3] > 100 µM | [4] > 100 µM | [5] > 100 µM | [6] > 100 µM | [8] > 100 µM

COC1OC(CO)C(O)C(NC(=O)N(C)N=O)C1O (stereo not drawn)
inactive: [1] > 100 µM | [2] > 100 µM | [3] > 100 µM | [4] > 100 µM | [5] > 100 µM | [6] > 100 µM | [7] > 100 µM | [8] > 100 µM

COc1ccc(C(=O)C(C(=O)C(=O)Nc2nc3ccc(OC)cc3s2)c2ccc(OC)cc2)cc1 (stereo not drawn)
inactive: [9] > 100 µM | [1] > 100 µM | [2] > 100 µM | [3] 90.2 µM | [4] > 100 µM | [5] > 100 µM | [6] > 100 µM | [7] > 100 µM | [8] > 100 µM

CN(C(=O)C12C3C4C1C1C2C3C41C(=O)N(C)C(C)(C)C)C(C)(C)C (stereo not drawn)
inactive: [9] > 50 µM | [2] > 50 µM | [3] > 50 µM | [4] > 50 µM | [5] > 50 µM | [6] > 50 µM | [7] > 50 µM | [8] > 50 µM

CC1(C)CC(/C=C2/OC(=O)c3ccccc32)=C(C(N)=O)C(=O)O1
inactive: [1] > 100 µM | [2] > 100 µM | [3] > 100 µM | [4] > 100 µM | [5] > 100 µM | [6] > 100 µM | [7] > 100 µM | [8] > 100 µM

COc1ccc(C(=O)NCCN(C)C)c2nc3ccccc3nc12
inactive: [9] 9.12 µM | [1] 4.23 µM | [3] 3.39 µM | [4] 4.6 µM | [5] 3.15 µM | [6] 4.95 µM | [7] 6.7 µM | [8] 3.72 µM

COc1ccc(N2C(=O)[C@@H](N=[N+]=[N-])[C@@H]2[C@H]2COC(C)(C)O2)cc1
inactive: [3] > 100 µM | [4] > 100 µM | [5] > 100 µM | [6] > 100 µM | [7] > 100 µM | [8] > 100 µM

O=C(Nc1ccccc1C(=O)O)C(=O)C(C(=O)c1ccccc1-c1ccccc1)C1OC(=O)c2ccccc21 (stereo not drawn)
inactive: [1] 23.5 µM | [2] 10.3 µM | [4] 26.5 µM | [5] 21.1 µM | [6] 22 µM | [7] 14.7 µM | [8] > 100 µM

CN(C)CCNC(=O)c1cccc2nc3cc(Cl)ccc3nc12
inactive: [1] 2.68 µM | [3] 1.83 µM | [4] 1.98 µM | [5] 1.8 µM | [6] 2.81 µM | [7] 2.14 µM | [8] 2.65 µM

N#CC(C(=O)CCCC(=O)Nc1ccc(Cl)cc1Cl)c1ccc(Cl)cc1 (stereo not drawn)
inactive: [9] > 100 µM | [1] > 100 µM | [2] > 100 µM | [4] > 100 µM | [6] > 100 µM | [7] > 100 µM | [8] > 100 µM

N#C/C(=C\c1ccccc1O)C(N)=O
inactive: [9] > 100 µM | [1] 70.1 µM | [2] 28.1 µM | [3] 44.6 µM | [4] > 100 µM | [5] > 100 µM | [6] > 100 µM | [7] 72.8 µM | [8] 46 µM

CC(N)Cc1ccc(C(=O)Cl)cc1 (stereo not drawn)
inactive: [9] > 100 µM | [1] > 100 µM | [2] > 100 µM | [3] > 100 µM | [5] > 100 µM | [6] > 100 µM | [7] > 100 µM

CN(C)C(=S)/N=c1\ss/c(=N\S(=O)(=O)c2ccccc2)n1C
inactive: [1] > 100 µM | [2] > 100 µM | [3] > 100 µM | [4] > 100 µM | [5] > 100 µM | [6] > 100 µM | [7] > 100 µM | [8] > 100 µM

Nc1ccn(CCOC(=O)c2ccccc2)c(=O)n1
inactive: [9] > 100 µM | [1] > 100 µM | [4] > 100 µM | [6] > 100 µM | [7] > 100 µM | [8] > 100 µM

Nc1ncnc2c1ncn2C1OC(CSCC(F)(F)F)C(O)C1O (stereo not drawn)
inactive: [1] > 100 µM | [2] > 100 µM | [4] > 100 µM | [5] > 100 µM | [6] > 100 µM | [7] > 100 µM | [8] > 100 µM

CCCCOCc1cc(CN2CCN(C)CC2)c(O)c2ncccc12
inactive: [9] 53.7 µM | [1] 8.05 µM | [2] 30.8 µM | [3] 6.38 µM | [4] 12.1 µM | [5] 26.7 µM | [6] 26.4 µM | [7] 11.9 µM | [8] 31 µM

CCOC(=O)N1C(c2ccccc2)C=CC(c2ccccc2)N1C(=O)OCC (stereo not drawn)
inactive: [1] > 100 µM | [2] > 100 µM | [3] > 100 µM | [5] > 100 µM | [6] > 100 µM | [8] > 100 µM

OCCc1cnco1
inactive: [1] > 100 µM | [3] > 100 µM | [4] 63.8 µM | [5] > 100 µM | [6] > 100 µM | [7] > 100 µM | [8] > 100 µM

O=C(O)CNc1c2ccccc2[n+]([O-])c2ccccc12
inactive: [9] > 100 µM | [1] 87.3 µM | [3] 47.9 µM | [4] 81.8 µM | [5] > 100 µM | [6] > 100 µM | [7] 34.6 µM | [8] > 100 µM

CC(C)(C)c1ccnc(/N=C2\N/C(=N\c3cc(C(C)(C)C)ccn3)c3ccccc32)c1
inactive: [1] 21.9 µM | [2] 15.5 µM | [4] > 10 µM | [5] 33.1 µM | [6] 13.9 µM | [7] 41.9 µM | [8] 19.9 µM

CN1C(=O)C2C3C=C4c5ccccc5N(c5ccccc5)C4(C2C1=O)[C@H]1C(=O)N(C)C(=O)[C@@H]31 (stereo partly drawn)
inactive: [1] > 100 µM | [2] > 100 µM | [3] 66.4 µM | [5] > 100 µM | [6] > 100 µM | [7] > 100 µM
